Converted amounts (≈) assume the structure as drawn. Counter-ions that a name gives are not always drawn. Like-named read-outs stand apart in the source and are kept apart here.
Assays:
Acinetobacter baumannii = assay: In vitro antibacterial activity, minimum inhibitory concentration (MIC); assay type: cell-based
Description: (§1) Compounds: The compounds prepared in the above examples and comparative examples. All test compounds were dissolved and diluted with DMSO, and the final concentrations were prepared as 64, 32, 16, 8, 4, 2, 1, 0.5, 0.25, 0.125, 0.0625 μg/mL in the experiment.
(§2) Bacterial strains: 6 strains of Acinetobacter baumannii (codenames: HDBAB-YK4, HDBAB-YK7, HDBAB-YK12, HDBAB-YK16, HDBAB_OXA_7, ATCC 19606), 2 strains of Pseudomonas aeruginosa (codenames: HDBPA-YK9, HDBPA)-YK15), 1 strain of Escherichia coli (codename: CLB30048), all provided by HD Biosciences (Shanghai) Co., Ltd.
(§3) Medium: Trypticase soy agar (TSA) (BD BBL 211043), and Cation-adjusted Mueller Hinton broth (CAMHB) (BD BBL212322).
(§4) The bacteria used for the minimum inhibitory concentration (MIC) test were stored frozen at −80° C., and needed 2 days to recover before use. A small amount of frozen bacteria was scraped with a sterile inoculation loop for streak inoculation on a TSA solid medium petri dish. The dish was placed in an ordinary incubator at 35±2° C. for 20-24 hours. 5-10 Colonies with similar morphologies were picked from the above-mentioned petri dish with a sterile inoculating loop for streak inoculation again on a TSA solid medium petri dish. The dish was then placed in an ordinary incubator at 35±2° C. for 20-24 hours.
(§5) 1.02×CAMHB liquid medium was taken out from a 4° C. refrigerator and placed at room temperature for preheating. 5-10 Individual bacterial colonies were picked from the solid petri dish of the above Section 2.1 and re-suspended in 500 μL of 0.9% NaCl, and then the OD600 was adjusted to 0.1-0.15 with a spectrophotometer. Then the bacteria were diluted 400 times with 1.02×CAMHB (two-step dilution method: firstly diluting 10 times, then diluting 40 times).
(§6) The number of inoculated bacteria can be obtained by counting the colonies on the petri dish (see Section 2.4).
(§7) One compound was arranged in each row of a 96-well test plate: the highest test concentration for each compound was 64 μg/mL, which was diluted by a factor of two.
(§8) Growth control (GC): 1.02×CAMHB and dimethyl sulfoxide (DMSO) containing bacterial inoculum, no compound.
(§9) Sterile control (SC): Containing 1.02×CAMHB and DMSO, no compound.
(§10) All test compounds were dissolved and diluted with DMSO. 50 μL of 3.2 mg/mL of each test compound was transferred to the initial well (A1-H1) of the dilution plate, and then 25 μL of DMSO was transferred to other wells. The test compounds were sequentially diluted by a factor of 2 from column 1 to column 11 (i.e. drawing 25 μL of test compound from column 1 to column 2 and mixing well, and then drawing 25 μL of test compound from column 2 to column 3 and mixing well, and then drawing 25 μL of test compound from column 3 to column 4 and mixing well, and so on, until diluting to column 11).
(§11) 2 μL of the compound was transferred from the compound plate to the corresponding well of the test plate. Meanwhile, 2 μL of 100% DMSO was transferred to the compound-free wells (the GC and SC wells).
(§12) 98 μL of the corresponding bacterial inoculum was added to the test plate (except for the SC well).
(§13) 98 μL of 1.02×CAMHB medium was added to the SC well of the test plate.
(§14) After the system was added, the test plate was covered with a sterile lid, centrifuged at 800 rpm for 30 seconds, then shaken on a plate shaker at 400 rpm for 1 minute for mixing well, and then placed in an incubator at 35±2° C. for 20 hours.
(§15) The inoculated bacteria were gradient diluted by 10 folds with the liquid medium, from 10^−1 to 10^−3. 100 μL of the above bacterial dilution was spread evenly on a TSA petri dish, 2 replicates for each dilution. After the medium was absorbed by TSA for 10 minutes, the petri dishes were reversed and incubated in an incubator at 35±2° C. for 24 hours.
(§16) A compound management system was turned on to check whether the barcode and compound arrangement of each test plate were correct. […]

Escherichia coli = assay: as above; assay type: cell-based
Description: as §1, §2, §3, §4, §5, §6, §7, §8, §9, §10, §11, §12, §13, §14, §15, §16

Pseudomonas aeruginosa = assay: as above; assay type: cell-based
Description: as §1, §2, §3, §4, §5, §6, §7, §8, §9, §10, §11, §12, §13, §14, §15, §16

[1] = Pharmacokinetics of the compounds in mice; assay type: in vivo, BALB/c mice; details: mouse, plasma, male BALB/c mice, single intravenous dose 2 mg/kg, plasma; for Vd: male, BALB/c, iv, 2 mg/kg
Excerpt: Animals: male BALB/c mice, SPF grade, purchased from Changzhou Cavens Experimental Animal Co., Ltd.; 16-24 g, license number: SCXK (Su)2016-0010; 2 to 3 days of adaptation period were given before the experiment.
Instruments: API 4500 High Performance Liquid Chromatograph Coupled Triple Quadrupole Mass Spectrometer, and Analyst QS A01.01 Chromatography Workstation were both purchased from AB SCIEX of the United States; Milli-Q ultrapure water device was purchased from Millipore; CF16R XII desktop high-speed refrigerated centrifuge was purchased From Hitachi Company; Qilinbeier Vortex-5 oscillator was purchased from IKA Company of German; electric heating constant-temperature water bath was purchased from Changzhou Guohua Electric Appliance Co., Ltd.; electric pipette was purchased from Thermo Company of American; and microanalysis balance was purchased from Shanghai Mettler Co., Ltd.
2 mg of the test compound was weighed, added to physiological saline, vortexed for 2 min, and ultrasonicated for 3 min, to prepare a test solution with a concentration of 0.2 mg/mL for intravenous administration.
A single dose of 2 mg/kg of the test compound was administered to BALB/c mice via the tail vein, the dose volume being 0.1 mL/10 g. At 5 min, 15 min, 30 min, 1 h, 2 h, 4 h after administration, blood samples were collected from the orbital venous plexus into heparinized EP tubes (0.6 mL), which were temporarily placed on crushed ice.
The samples were centrifuged at 8000 rpm for 5 min. 15 μL of upper plasma were transferred to a 96-well plate. 150 μL of methanol:acetonitrile (v/v=1:1) (containing 20 ng/mL tolbutamide) was added to 15 μL of plasma, shaken for 3 min, and centrifuged at 4500 rpm for 5 min. 100 μL of supernatant was taken to a 2 mL deep well plate. 100 μL of diluent (pure water) was added. The samples were shaken for 3 min, and centrifuged at 4500 rpm for 5 min. 180 μL of the supernatant was transferred to the sample plate. The content of the compound in the supernatant sample was analyzed by LC-MS/MS, and various pharmacokinetic parameters were calculated with WinNonlin software.

[2] = tested on: Acinetobacter baumannii, Pseudomonas aeruginosa, and Escherichia coli; assay: In vitro antibacterial activity, summary statements over all strains of Experimental Example 1; assay type: cell-based; details: method of Experimental Example 1
Description: as §1, §2
The minimum inhibitory concentration (MIC) of each compound was recorded according to the guidelines of the Clinical and Laboratory Standards Institute.

Row | SMILES | MIC (Acinetobacter baumannii; strain HDBAB-YK4) [µg/mL] | MIC (Acinetobacter baumannii; strain HDBAB-YK7) [µg/mL] | MIC (Acinetobacter baumannii; strain HDBAB-YK12) [µg/mL] | MIC (Acinetobacter baumannii; strain HDBAB-YK16) [µg/mL] | MIC (Acinetobacter baumannii; strain HDBAB_OXA_7) [µg/mL] | MIC (Escherichia coli; strain CLB30048, read-out: MIC) [µg/mL] | MIC (Pseudomonas aeruginosa; strain HDBPA-YK9) [µg/mL] | MIC (Pseudomonas aeruginosa; strain HDBPA-YK15) [µg/mL] | Vd ([1]; read-out: VSS) [L/kg] | AUC(0-inf) [1] [ng·h/mL] | AUC(0-t) [1] [ng·h/mL] | C0 [1] [ng/mL] | clearance [1] [mL/min/kg] | half-life [1] [min] | in vitro antibacterial activity (in words) [2] | MIC (Acinetobacter baumannii; ATCC19606, strain ATCC 19606) [µg/mL] | MIC (Escherichia coli) [µg/mL] | Vd ([1]; read-out: Vd) [L/kg]
1 | CC(CN)Nc1ccc(-c2ccc(OC[C@H](O/N=C(\C(=O)N[C@@H]3C(=O)N(OS(=O)(=O)[O-])C3(C)C)c3csc(N)n3)C(=O)O)cc2)c[n+]1C (some centres unmarked) [Compound A, reference compound] | 16 (≈ 22.6 µM) | 8 (≈ 11.3 µM) | 4 (≈ 5.66 µM) | 16 (≈ 22.6 µM) | 16 (≈ 22.6 µM) | 8 (≈ 11.3 µM) | 16 (≈ 22.6 µM) | 64 (≈ 90.6 µM) | 0.4 | 2800 | 2140 | 5920 | 265 | 18 | significantly weaker | – | – | –
2 | CC1[C@@H](NC(=O)/C(=N\OC2(C(=O)O)CC2)c2csc(N)n2)[C@@H](CN2CCOC2=O)N1S(=O)(=O)O (some centres unmarked) [Compound B, reference compound] | > 64 | > 64 | > 64 | > 64 | > 64 | > 64 | > 64 | > 64 | – | – | – | – | – | – | significantly weaker | – | – | –
3 | CC1(C)[C@H](NC(=O)/C(=N\O[C@@H](COc2ccc(NC(=O)c3cn(CCCN)[n+](CC4CNC4)c3)cc2)C(=O)O)c2csc(N)n2)C(=O)N1OS(=O)(=O)[O-] [Example 2, (S)-3-((Z)-2-(((S)-2-(4-(1-(3-aminopropyl)-2-(azetidin-3-ylmethyl)-1H-pyrazol-2-ium-4-carboxamido)phenoxy)-1-carboxyethoxy)imino)-2-(2-aminothiazol-4-yl)acetylamido)-2,2-dimethyl-4-oxoazetidin-1-yl Sulfate] | 2 | 0.625 | 2 | 8 | 4 | – | 4 | > 64 | – | – | – | – | – | – | excellent antibacterial activity | 2 | 1 | –
4 | CC1(C)[C@H](NC(=O)/C(=N\O[C@@H](COc2ccc(-c3cn4[n+](c3)CC(OCCCN)C4)cc2)C(=O)O)c2csc(N)n2)C(=O)N1OS(=O)(=O)[O-] (stereo partly drawn) [Example 3, (3S)-3-((Z)-2-(((1S)-2-(4-(2-(3-aminopropoxy)-2,3-dihydro-1H-pyrazolo[1,2-a]pyrazol-4-ium-6-yl)phenoxy)-1-carboxyethoxy)imino)-2-(2-aminothiazol-4-yl)acetylamino)-2,2-dimethyl-4-oxoazetidin-1-yl Sulfate] | 2 | 2 | 2 | 16 | 8 | 4 | 16 | > 64 | 0.26 | 2310 | 2300 | 8650 | 14.5 | 16.8 | excellent antibacterial activity | 2 | – | 0.35
5 | C[n+]1cc(-c2ccc(OC[C@H](O/N=C(\C(=O)N[C@@H]3C(=O)N(OS(=O)(=O)[O-])C3(C)C)c3csc(N)n3)C(=O)O)cc2)ccc1NC(=O)[C@@H](N)CCCCN [Example 4, (S)-3-((Z)-2-(2-aminothiazol-4-yl)-2-(((S)-1-carboxy-2-(4-(6-((S)-2,6-diaminohexanamido)-1-methylpyridin-1-ium-3-yl)phenoxy)ethoxy)imino)acetylamino)-2,2-dimethyl-4-oxoazetidin-1-yl Sulfate] | 2 | 2 | 4 | 32 | 16 | 8 | 16 | > 64 | 0.73 | 813 | 751 | 3010 | 42.8 | 13.8 | – | 2 | – | 0.88
6 | C[n+]1cc(-c2ccc(OC[C@H](O/N=C(\C(=O)N[C@@H]3C(=O)N(OS(=O)(=O)[O-])C3(C)C)c3csc(N)n3)C(=O)O)cc2)ccc1NC(=O)[C@@H](N)CCN [Example 9] | 2 (≈ 2.67 µM) | 0.25 (≈ 0.333 µM) | 1 (≈ 1.33 µM) | 8 (≈ 10.7 µM) | 8 (≈ 10.7 µM) | 2 (≈ 2.67 µM) | 8 (≈ 10.7 µM) | > 64 | – | – | – | – | – | – | excellent antibacterial activity | 2 (≈ 2.67 µM) | – | –

Reference: patent publication US20220002288A1, “MONOBACTAM COMPOUNDS AND USE THEREFOR” (priority 2018, published 2022)
